In ChEMBL document CHEMBL3992518, “Peptide Macrocycle Inhibitor of Coagulation Factor XII with Subnanomolar Affinity and High Target Selectivity” (J Med Chem, 2017):
Active and inactive are the calls of the source. The calls are words filed in the database; no cut-off is given here.

Tests used:
[1] = species: Homo sapiens; experiment: Selectivity for human beta-factor 12a over human factor 7a
[2] = species: Homo sapiens; experiment: Selectivity for human beta-factor 12a over human thrombin
[3] = molecular target: T1, Plasma kallikrein (Homo sapiens, UniProt P03952); experiment: Inhibition of human plasma kallikrein at 40 uM using fluorogenic substrate Z-Phe-Arg-AMC
T1 sequence (P03952 20-390 limits assumed): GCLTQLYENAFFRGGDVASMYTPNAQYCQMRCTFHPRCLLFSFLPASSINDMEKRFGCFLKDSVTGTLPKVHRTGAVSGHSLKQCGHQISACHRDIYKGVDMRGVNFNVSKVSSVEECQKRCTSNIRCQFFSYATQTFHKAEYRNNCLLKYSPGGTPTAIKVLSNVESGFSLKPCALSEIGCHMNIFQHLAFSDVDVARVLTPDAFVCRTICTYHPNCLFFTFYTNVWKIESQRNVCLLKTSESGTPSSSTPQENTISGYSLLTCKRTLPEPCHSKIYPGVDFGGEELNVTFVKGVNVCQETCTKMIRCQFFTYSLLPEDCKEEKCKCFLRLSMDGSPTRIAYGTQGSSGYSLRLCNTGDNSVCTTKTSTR
T1 sequence (P03952 391-638 limits assumed): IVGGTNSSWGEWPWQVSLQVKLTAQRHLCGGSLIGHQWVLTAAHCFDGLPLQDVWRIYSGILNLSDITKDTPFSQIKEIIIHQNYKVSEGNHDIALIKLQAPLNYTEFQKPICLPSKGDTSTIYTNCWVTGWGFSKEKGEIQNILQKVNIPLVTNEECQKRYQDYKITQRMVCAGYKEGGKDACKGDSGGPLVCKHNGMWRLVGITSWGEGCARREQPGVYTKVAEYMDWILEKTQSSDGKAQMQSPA

[4] = molecular target: T1, Plasma kallikrein; experiment: Inhibition of human plasma kallikrein using fluorogenic substrate Z-Phe-Arg-AMC
[5] = molecular target: Urokinase-type plasminogen activator (Homo sapiens) (UniProt P00749); experiment: Inhibition of human uPa at 40 uM using fluorogenic substrate Z-Gly-Gly-Arg-AMC
[6] = system: Plasma; experiment: Anticoagulant activity in human plasma assessed as concentration required to double activated partial thromboplastin time by coagulation analyser; format: functional
[7] = molecular target: Prothrombin (Homo sapiens) (UniProt P00734); experiment: Inhibition of human thrombin at 40 uM using fluorogenic substrate Z-Gly-Gly-Arg-AMC
[8] = molecular target: Plasminogen (Homo sapiens) (UniProt P00747); experiment: Inhibition of human plasmin at 40 uM using fluorogenic substrate H-D-Val-Leu-Lys-AMC
Chain of Plasminogen (Homo sapiens) (P00747 97-580 limits assumed): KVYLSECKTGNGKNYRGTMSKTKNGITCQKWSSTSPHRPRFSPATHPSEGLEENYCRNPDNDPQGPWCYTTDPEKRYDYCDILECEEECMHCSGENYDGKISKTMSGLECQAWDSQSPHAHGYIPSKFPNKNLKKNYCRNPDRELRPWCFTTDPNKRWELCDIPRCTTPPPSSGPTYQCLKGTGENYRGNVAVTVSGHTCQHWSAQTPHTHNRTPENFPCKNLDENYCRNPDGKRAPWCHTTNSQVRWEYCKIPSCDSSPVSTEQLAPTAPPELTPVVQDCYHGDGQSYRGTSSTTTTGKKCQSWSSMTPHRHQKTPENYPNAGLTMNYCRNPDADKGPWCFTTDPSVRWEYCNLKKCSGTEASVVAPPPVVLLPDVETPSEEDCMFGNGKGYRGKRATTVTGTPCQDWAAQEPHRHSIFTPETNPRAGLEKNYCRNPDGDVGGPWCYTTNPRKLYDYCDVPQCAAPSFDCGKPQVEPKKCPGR
Chain of Plasminogen (Homo sapiens) (P00747 581-810 limits assumed): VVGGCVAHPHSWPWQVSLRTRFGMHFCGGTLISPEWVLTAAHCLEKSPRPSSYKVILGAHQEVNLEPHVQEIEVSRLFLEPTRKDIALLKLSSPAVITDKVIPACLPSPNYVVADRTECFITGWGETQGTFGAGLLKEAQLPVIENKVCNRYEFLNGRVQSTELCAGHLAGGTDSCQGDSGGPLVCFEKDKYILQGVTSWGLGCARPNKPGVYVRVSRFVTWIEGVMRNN

[9] = species: Homo sapiens; experiment: Selectivity for human beta-factor 12a over human factor 10a
[10] = molecular target: Tissue-type plasminogen activator (Homo sapiens) (UniProt P00750); experiment: Inhibition of human tPa at 40 uM using fluorogenic substrate Z-Gly-Gly-Arg-AMC
Chain of Tissue-type plasminogen activator (Homo sapiens) (P00750 36-562 limits assumed): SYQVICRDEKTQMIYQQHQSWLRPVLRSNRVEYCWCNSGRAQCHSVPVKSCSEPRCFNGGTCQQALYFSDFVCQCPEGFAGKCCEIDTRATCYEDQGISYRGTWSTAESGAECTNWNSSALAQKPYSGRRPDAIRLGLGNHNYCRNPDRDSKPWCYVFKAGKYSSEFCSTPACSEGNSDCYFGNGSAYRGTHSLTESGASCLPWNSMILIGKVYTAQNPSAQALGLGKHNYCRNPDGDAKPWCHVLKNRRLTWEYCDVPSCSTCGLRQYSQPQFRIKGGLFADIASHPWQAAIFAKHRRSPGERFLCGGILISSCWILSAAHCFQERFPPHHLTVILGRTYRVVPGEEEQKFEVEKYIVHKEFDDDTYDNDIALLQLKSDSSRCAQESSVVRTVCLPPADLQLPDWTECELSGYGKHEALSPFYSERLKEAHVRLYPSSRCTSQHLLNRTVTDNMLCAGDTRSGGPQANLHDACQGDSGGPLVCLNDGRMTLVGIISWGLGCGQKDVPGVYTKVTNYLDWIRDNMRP

[11] = molecular target: T2, Coagulation factor XII (Homo sapiens, UniProt P00748); experiment: Inhibition of human beta factor 12a using fluorogenic substrate Boc-Gln-Gly-Arg-AMC preincubated for 10 mins followed by addition of substrate measured every min for 30 mins
T2 sequence (P00748 whole entry): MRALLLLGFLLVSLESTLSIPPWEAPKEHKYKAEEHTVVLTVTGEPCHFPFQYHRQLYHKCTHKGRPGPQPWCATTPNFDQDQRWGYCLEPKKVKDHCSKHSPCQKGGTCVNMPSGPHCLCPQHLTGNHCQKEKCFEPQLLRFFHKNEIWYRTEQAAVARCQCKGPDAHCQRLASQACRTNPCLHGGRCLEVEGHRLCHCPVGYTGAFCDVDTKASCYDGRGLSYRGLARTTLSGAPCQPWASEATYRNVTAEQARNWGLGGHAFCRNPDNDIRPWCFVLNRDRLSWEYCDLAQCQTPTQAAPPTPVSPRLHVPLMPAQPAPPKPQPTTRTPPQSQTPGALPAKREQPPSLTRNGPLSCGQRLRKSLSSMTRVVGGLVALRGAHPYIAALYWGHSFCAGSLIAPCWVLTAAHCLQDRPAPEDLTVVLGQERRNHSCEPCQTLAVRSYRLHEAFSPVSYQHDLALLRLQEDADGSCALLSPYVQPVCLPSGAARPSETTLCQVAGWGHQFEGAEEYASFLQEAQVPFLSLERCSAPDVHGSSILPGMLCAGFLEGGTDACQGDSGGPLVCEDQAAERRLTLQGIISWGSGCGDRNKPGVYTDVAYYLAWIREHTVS

[12] = species: Homo sapiens; experiment: Selectivity for human beta-factor 12a over human uPa
[13] = Inhibition of human trypsin using fluorogenic substrate Z-Gly-Gly-Arg-AMC
[14] = Half life in human citrated plasma at 10 uM by mass spectrophotometric analysis; format: ADME, cell-free
[15] = molecular target: Coagulation factor XI (Homo sapiens) (UniProt P03951); experiment: Inhibition of human factor 11a at 40 uM using fluorogenic substrate Boc-Phe-Ser-Arg-AMC
Chain of Coagulation factor XI (Homo sapiens) (P03951 19-387 limits assumed): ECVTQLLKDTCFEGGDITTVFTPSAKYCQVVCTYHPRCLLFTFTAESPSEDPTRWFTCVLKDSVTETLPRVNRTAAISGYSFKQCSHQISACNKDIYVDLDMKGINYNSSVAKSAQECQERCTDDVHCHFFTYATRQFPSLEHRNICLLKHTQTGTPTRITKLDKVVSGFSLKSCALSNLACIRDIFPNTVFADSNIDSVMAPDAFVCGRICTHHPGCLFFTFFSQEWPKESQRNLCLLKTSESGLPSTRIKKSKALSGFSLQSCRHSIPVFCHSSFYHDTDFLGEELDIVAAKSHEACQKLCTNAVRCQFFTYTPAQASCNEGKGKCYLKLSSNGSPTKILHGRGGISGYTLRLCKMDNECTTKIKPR
Chain of Coagulation factor XI (Homo sapiens) (P03951 388-625 limits assumed): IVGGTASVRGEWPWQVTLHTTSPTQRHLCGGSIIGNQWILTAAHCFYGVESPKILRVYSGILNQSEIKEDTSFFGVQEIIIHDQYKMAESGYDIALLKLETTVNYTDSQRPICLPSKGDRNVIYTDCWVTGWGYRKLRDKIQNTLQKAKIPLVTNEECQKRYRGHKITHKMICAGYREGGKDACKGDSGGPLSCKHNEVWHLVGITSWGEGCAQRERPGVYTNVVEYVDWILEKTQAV

[16] = species: Homo sapiens; experiment: Selectivity for human beta-factor 12a over human factor 11a
[17] = species: Homo sapiens; experiment: Selectivity for human beta factor 12a over human plasma kallikrein
[18] = species: Homo sapiens; experiment: Selectivity for human beta-factor 12a over human tPa
[19] = species: Homo sapiens; experiment: Selectivity for human beta-factor 12a over human trypsin
[20] = molecular target: T3, Coagulation factor VII (Homo sapiens) (UniProt P08709); experiment: Inhibition of human factor 7a at 40 uM using fluorogenic substrate D-Phe-Pro-Arg-ANSNH-C4H9
T3 sequence (whole entry): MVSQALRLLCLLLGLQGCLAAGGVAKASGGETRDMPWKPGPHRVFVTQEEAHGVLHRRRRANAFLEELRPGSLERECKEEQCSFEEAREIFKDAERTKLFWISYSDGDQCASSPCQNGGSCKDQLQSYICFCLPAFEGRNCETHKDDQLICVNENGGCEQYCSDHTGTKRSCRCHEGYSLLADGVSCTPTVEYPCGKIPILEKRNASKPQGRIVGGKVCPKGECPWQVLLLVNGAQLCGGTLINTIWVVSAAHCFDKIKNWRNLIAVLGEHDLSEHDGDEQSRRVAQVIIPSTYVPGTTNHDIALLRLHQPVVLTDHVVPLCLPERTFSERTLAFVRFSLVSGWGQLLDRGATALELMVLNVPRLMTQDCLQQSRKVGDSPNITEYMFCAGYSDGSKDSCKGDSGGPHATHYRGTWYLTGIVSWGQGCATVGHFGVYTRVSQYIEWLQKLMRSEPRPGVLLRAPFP

[21] = species: Homo sapiens; experiment: Inhibition of human trypsin at 40 uM using fluorogenic substrate Z-Gly-Gly-Arg-AMC
[22] = species: Homo sapiens; experiment: Selectivity for human beta-factor 12a over human plasmin
[23] = molecular target: Coagulation factor X (Homo sapiens) (UniProt P00742); experiment: Inhibition of human factor 10a at 40 uM using fluorogenic substrate D-Phe-Pro-Arg-ANSNH-C4H9
Chain of Coagulation factor X (Homo sapiens) (P00742 41-179 limits assumed): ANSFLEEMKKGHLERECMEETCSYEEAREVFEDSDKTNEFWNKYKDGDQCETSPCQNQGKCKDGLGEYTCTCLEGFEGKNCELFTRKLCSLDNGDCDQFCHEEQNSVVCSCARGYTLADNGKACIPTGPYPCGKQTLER
Chain of Coagulation factor X (Homo sapiens) (P00742 235-488 limits assumed): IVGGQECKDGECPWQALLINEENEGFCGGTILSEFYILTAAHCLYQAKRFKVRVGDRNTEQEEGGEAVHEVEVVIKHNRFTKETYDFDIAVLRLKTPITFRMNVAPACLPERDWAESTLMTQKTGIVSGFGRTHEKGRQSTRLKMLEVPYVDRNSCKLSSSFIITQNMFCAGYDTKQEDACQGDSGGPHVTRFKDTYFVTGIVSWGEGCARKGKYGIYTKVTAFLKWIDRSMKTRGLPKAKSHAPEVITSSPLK

[24] = system: Plasma; experiment: Anticoagulant activity in human plasma assessed as change in prothrombin time up to 40 uM by coagulation analyser; format: functional, cell-free

Selectivity ratio [1]: 27000 | Selectivity ratio [2]: 27000 | inhibition [3]: > 50% | Ki [4]: 45100 nM | inhibition [5]: < 20% | inhibition [7]: < 20% | inhibition [8]: < 20% | Selectivity ratio [9]: 27000 | inhibition [10]: < 20% | Ki [11]: 1.63 nM | Selectivity ratio [12]: 27000 | Ki [13]: 1300 nM | half-life at 10 µM [14]: 16 h | inhibition [15]: < 20% | Selectivity ratio [16]: 27000 | Selectivity ratio [17]: 27000 | Selectivity ratio [18]: 27000 | Selectivity ratio [19]: 800 | inhibition [20]: < 20% | inhibition [21]: > 50% | Selectivity ratio [22]: 27000 | inhibition [23]: < 20%
Structure (SMILES): CC(C)C[C@@H]1NC(=O)[C@H](CCC(N)=O)NC(=O)[C@H](CCCNC(=N)N)NC(=O)[C@@H]2CSCCC(=O)N3CN(CN(C3)C(=O)CCSC[C@H](NC(=O)[C@@H](N)CCNC(=N)N)C(=O)N[C@@H](Cc3ccc(F)cc3)C(=O)N[C@@H](CCCNC(=N)N)C(=O)N[C@@H](CC(C)C)C(=O)N3CCC[C@H]3C(=O)N2)C(=O)CCSC[C@@H](C(=O)N[C@@H](CCCNC(=N)N)C(=O)O)NC(=O)[C@H](CCCNC(=N)N)NC1=O
2aPTT [6]: 2 µM | Activity [6]: Dose-dependent effect | Activity [24]: inactive
